Assay results published in PubChem BioAssay AID2060621 (Molecular Pharmacology Branch, DTP, NCI, 2025).
Where “and” joins values, the source holds several entries; their conditions need not be identical. Equal entries are not always repeated.

Tested on: 324938-238-R-J1-PDC complex spheroids viability
Test: Anticancer human tumor 324938-238-R-J1-PDC patient-derived bladder carcinoma cell line growth inhibition [CLK]
Settings: for viability, T/C: stronger effect = lower value
Outline: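 Multi-cell-type spheroids combined patient-derived tumor cells with HUVEC endothelial cells and human mesenchymal stem cells. Paired agents were dosed in half-log steps down from about clinical Cmax, or from 10 microM where Cmax was unknown.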

[1] = curve of first compound, second compound 0.0316 µM
[2] = curve of first compound, second compound 0.1 µM
[3] = curve of first compound, second compound 0.316 µM
[4] = curve of first compound, second compound 1 µM
[5] = curve of first compound, second compound 3.16 µM
[6] = curve of first compound, second compound 10 µM
[7] = second compound 0.0316 µM, first compound 0.0316 µM
[8] = second compound 0.0316 µM, first compound 0.1 µM
[9] = second compound 0.0316 µM, first compound 0.316 µM
[10] = second compound 0.0316 µM, first compound 1 µM
[11] = second compound 0.1 µM, first compound 0.0316 µM
[12] = second compound 0.1 µM, first compound 0.1 µM
[13] = second compound 0.1 µM, first compound 0.316 µM
[14] = second compound 0.1 µM, first compound 1 µM
[15] = second compound 0.316 µM, first compound 0.0316 µM
[16] = second compound 0.316 µM, first compound 0.1 µM
[17] = second compound 0.316 µM, first compound 0.316 µM
[18] = second compound 0.316 µM, first compound 1 µM
[19] = second compound 1 µM, first compound 0.0316 µM
[20] = second compound 1 µM, first compound 0.1 µM
[21] = second compound 1 µM, first compound 0.316 µM
[22] = second compound 1 µM, first compound 1 µM
[23] = second compound 3.16 µM, first compound 0.0316 µM
[24] = second compound 3.16 µM, first compound 0.1 µM
[25] = second compound 3.16 µM, first compound 0.316 µM
[26] = second compound 3.16 µM, first compound 1 µM
[27] = second compound 10 µM, first compound 0.0316 µM
[28] = second compound 10 µM, first compound 0.1 µM
[29] = second compound 10 µM, first compound 0.316 µM
[30] = second compound 10 µM, first compound 1 µM
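Further: viability read after seven days of drug exposure.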
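Wherever viability, T/C is given: 100% = DMSO vehicle control wells.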

`NC(=O)C(=Cn1cnc(-c2cc(C(F)(F)F)cc(C(F)(F)F)c2)n1)c1cncnc1` was tested, and the viability, T/C (compound 0.00949 µM) was 70.3% and 65.1%, the viability, T/C (compound 0.03 µM) was 56.4% and 61.5% and the viability, T/C (compound 0.0949 µM) was 37.4% and 29.3%. For the same compound, the viability, T/C (compound 0.3 µM) was 12.4% and 14%, the viability, T/C (compound 0.949 µM) was 5.43% and 5.85% and the viability, T/C (compound 3 µM) was 3.14% and 2.78%. The IC50 (curve of compound) was 45.5 nM and 43.6 nM.
`COc1c(OCCCN2CCOCC2)ccc2c3n(c(=NC(=O)c4cnc(N)nc4)nc12)CCN3` + CNC(=O)c1ccc(Nc2nc(OC3CCCC3)c3c(-c4ccc5nc(C)oc5c4)c[nH]c3n2)c(OC)c1 gave an IC50 [1] of 21.5 nM, an IC50 [2] of less than 3.16 nM and an IC50 [3] of less than 3.16 nM. The IC50 [4] was less than 3.16 nM, the IC50 [5] was less than 3.16 nM and the IC50 [6] was less than 3.16 nM. It also gave a viability, T/C (second compound 0.0316 µM, first compound 0.00316 µM) of 72.8%, a viability, T/C (second compound 0.0316 µM, first compound 0.01 µM) of 66.1% and a viability, T/C [7] of 41.3%. The viability, T/C [8] was 19.4%, the viability, T/C [9] was 7.32% and the viability, T/C [10] was 0.92%. For the same compound, the viability, T/C (second compound 0.1 µM, first compound 0.00316 µM) was 36.3%, the viability, T/C (second compound 0.1 µM, first compound 0.01 µM) was 34.7% and the viability, T/C [11] was 32.4%. It also gave a viability, T/C [12] of 19.4%, a viability, T/C [13] of 6.56% and a viability, T/C [14] of 1.65%. For the same compound, the viability, T/C (second compound 0.316 µM, first compound 0.00316 µM) was 15.5%, the viability, T/C (second compound 0.316 µM, first compound 0.01 µM) was 12.7% and the viability, T/C [15] was 10.2%. It also gave a viability, T/C [16] of 4.98%, a viability, T/C [17] of 2.15% and a viability, T/C [18] of 0.5%. The viability, T/C (second compound 1 µM, first compound 0.00316 µM) was 15.6%, the viability, T/C (second compound 1 µM, first compound 0.01 µM) was 12.1% and the viability, T/C [19] was 6.92%. It also gave a viability, T/C [20] of 4.04%, a viability, T/C [21] of 1.17% and a viability, T/C [22] of 0.45%. For the same compound, the viability, T/C (second compound 3.16 µM, first compound 0.00316 µM) was 15.5%, the viability, T/C (second compound 3.16 µM, first compound 0.01 µM) was 12.8% and the viability, T/C [23] was 8.33%. It also gave a viability, T/C [24] of 3.11%, a viability, T/C [25] of 0.87% and a viability, T/C [26] of 0.39%. For the same compound, the viability, T/C (second compound 10 µM, first compound 0.00316 µM) was 14.3%, the viability, T/C (second compound 10 µM, first compound 0.01 µM) was 10.3% and the viability, T/C [27] was 6.72%. The viability, T/C [28] was 3.94%, the viability, T/C [29] was 1.19% and the viability, T/C [30] was 0.48%.
For `CC(CO)NC(=O)c1cc(-c2ccc(Cl)cc2)nn(-c2cnn(C)c2)c1=O` (stereo not given), the viability, T/C (compound 0.0316 µM) was 84.8% and 86.6%, the viability, T/C (compound 0.1 µM) was 92.3% and 81.3% and the viability, T/C (compound 0.316 µM) was 71.5% and 73.9%. For the same compound, the viability, T/C (compound 1 µM) was 78.2% and 76.1%, the viability, T/C (compound 3.16 µM) was 60.9% and 59.9% and the viability, T/C (compound 10 µM) was 47.1% and 42.9%. For the same compound, the IC50 (curve of compound) was 8050 nM and 6340 nM.
In the case of `CCCS(=O)(=O)Nc1ccc(F)c(C(=O)c2c[nH]c3ncc(-c4ccc(Cl)cc4)cc23)c1F` + CN1CCN(c2cc(C(=O)Nc3cc4cc(-c5cnn(C)c5)ccc4cn3)ccn2)CC1, the IC50 [1] is reported as greater than 10000 nM, the IC50 [2] is reported as 8330 nM and the IC50 [3] is reported as less than 31.6 nM. The IC50 [4] was less than 31.6 nM, the IC50 [5] was less than 31.6 nM and the IC50 [6] was less than 31.6 nM. It also gave a viability, T/C [7] of 76.9%, a viability, T/C [8] of 96% and a viability, T/C [9] of 92.7%. The viability, T/C [10] was 114%, the viability, T/C (second compound 0.0316 µM, first compound 3.16 µM) was 102% and the viability, T/C (second compound 0.0316 µM, first compound 10 µM) was 58.3%. It also gave a viability, T/C [11] of 61.2%, a viability, T/C [12] of 61.3% and a viability, T/C [13] of 52%. The viability, T/C [14] was 65.7%, the viability, T/C (second compound 0.1 µM, first compound 3.16 µM) was 60.1% and the viability, T/C (second compound 0.1 µM, first compound 10 µM) was 39.1%. It also gave a viability, T/C [15] of 24.1%, a viability, T/C [16] of 27.6% and a viability, T/C [17] of 24.5%. The viability, T/C [18] was 27.2%, the viability, T/C (second compound 0.316 µM, first compound 3.16 µM) was 26% and the viability, T/C (second compound 0.316 µM, first compound 10 µM) was 24.8%. It also gave a viability, T/C [19] of 1.58%, a viability, T/C [20] of 1.65% and a viability, T/C [21] of 1.22%. It also gave a viability, T/C [22] of 0.96%, a viability, T/C (second compound 1 µM, first compound 3.16 µM) of 1.9% and a viability, T/C (second compound 1 µM, first compound 10 µM) of 0.6%. For the same compound, the viability, T/C [23] was 0.52%, the viability, T/C [24] was 0.23% and the viability, T/C [25] was 0.3%. For the same compound, the viability, T/C [26] was 0.13%, the viability, T/C (second compound 3.16 µM, first compound 3.16 µM) was 0.14% and the viability, T/C (second compound 3.16 µM, first compound 10 µM) was 0.21%. The viability, T/C [27] was 0.56%, the viability, T/C [28] was 0.19% and the viability, T/C [29] was 0.19%. The viability, T/C [30] was 0.31%, the viability, T/C (second compound 10 µM, first compound 3.16 µM) was 0.18% and the viability, T/C (second compound 10 µM, first compound 10 µM) was 0.62%.
For `C=CC(=O)N1CCN(c2nc(=O)n(-c3c(C)ccnc3C(C)C)c3nc(-c4c(O)cccc4F)c(F)cc23)C(C)C1` (stereo not given), the viability, T/C (compound 0.0316 µM) was 79.1% and 96.4%, the viability, T/C (compound 0.1 µM) was 91.3% and 85% and the viability, T/C (compound 0.316 µM) was 85.2% and 93.5%. For the same compound, the viability, T/C (compound 1 µM) was 102% and 99.9%, the viability, T/C (compound 3.16 µM) was 105% and 99.1% and the viability, T/C (compound 10 µM) was 87.9% and 86.4%. For the same compound, the IC50 (curve of compound) was greater than 10000 nM.
